# Laboratory results reported in patent publication US10975068B2, “6-aminopyridin-3-yl thiazoles as modulators of RORγT” (Janssen Pharmaceutica NV, priority 2016, dated 2021).
# Like-named read-outs stand apart in the source and are kept apart here.
# Tests used:
# full-length human RORγt = full-length human RORγt (Homo sapiens (Human), UniProt P51449); test: RORγt (full-length human) reporter assay, Conditions B or C; format: cell-based; details: for RORγt (FL) Reporter Assay B or C, % inhibition (value marked *): marked *: footnote not given; for IC50: read-out: RORγt (FL) Reporter Assay B or C, IC50; for inhibition at 3 µM: at 3 μM compound concentration; for inhibition at 6 µM: read-out: RORγt (FL) Reporter Assay B or C, % inhibition @ 6 μM, Conditions B or C
# Summary of the method: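 Readout is dual luciferase: firefly (GAL4-driven) normalized to DMSO-only and saturating-reference controls, then to CMV-Renilla. Full-length human RORγt fused to GAL4-DBD was transiently expressed in HEK293T; compound exposure ran overnight (16-20 h) starting 4-6 h after transfection, final FBS 1.3%, DMSO 0.1%.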
# [1] = biological target: human RORγt ligand binding domain (RORγt LBD) (Homo sapiens (Human), UniProt P51449); test: RORγt ThermoFluor® assay (thermal shift binding); details: read-out: ThermoFluor® Assay, Kd
# Summary of the method: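 Binding was inferred from thermal stabilisation (ΔTm) of the E. coli-expressed RORγt LBD (0.065 mg/mL), monitored by 1,8-ANS (60 μM) emission at 500 nm during a 1 °C/min ramp. Buffer was Hepes 100 mM pH 7.0 with NaCl, GSH and Tween-20.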
# [2] = read-out: RORγt (FL) Reporter Assay B or C, % inhibition
# Chain of human RORγt ligand binding domain (RORγt LBD) (P51449 other isoform, or with tags, fused parts or gaps): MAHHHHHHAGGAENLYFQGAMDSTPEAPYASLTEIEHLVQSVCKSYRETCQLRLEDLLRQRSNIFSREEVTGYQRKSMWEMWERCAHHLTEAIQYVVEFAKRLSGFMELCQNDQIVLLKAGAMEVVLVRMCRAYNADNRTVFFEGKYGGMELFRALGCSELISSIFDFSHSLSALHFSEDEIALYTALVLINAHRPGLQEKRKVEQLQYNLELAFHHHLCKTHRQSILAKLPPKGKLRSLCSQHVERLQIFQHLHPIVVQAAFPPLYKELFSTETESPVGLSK
# Chain of full-length human RORγt (P51449 other isoform, or with tags, fused parts or gaps): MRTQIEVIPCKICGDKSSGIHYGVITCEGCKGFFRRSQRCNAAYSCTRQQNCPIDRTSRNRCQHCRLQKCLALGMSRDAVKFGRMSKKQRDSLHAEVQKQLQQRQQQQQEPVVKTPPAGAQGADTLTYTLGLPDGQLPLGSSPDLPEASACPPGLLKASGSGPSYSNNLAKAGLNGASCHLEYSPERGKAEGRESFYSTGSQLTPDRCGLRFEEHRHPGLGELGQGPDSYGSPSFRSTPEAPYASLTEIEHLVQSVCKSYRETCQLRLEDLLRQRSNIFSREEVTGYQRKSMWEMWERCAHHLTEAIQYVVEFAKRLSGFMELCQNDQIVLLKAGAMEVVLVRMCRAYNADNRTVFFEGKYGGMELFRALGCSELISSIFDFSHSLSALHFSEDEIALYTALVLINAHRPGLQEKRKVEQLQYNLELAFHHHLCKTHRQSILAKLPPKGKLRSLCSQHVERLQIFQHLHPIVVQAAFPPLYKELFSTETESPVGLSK
Structure (SMILES),"RORγt (FL) Reporter Assay B or C, % inhibition (value marked *) (full-length human RORγt; Conditions B or C)",IC50 (full-length human RORγt; Conditions B or C),Kd [1],inhibition at 3 µM (full-length human RORγt; [2]),IC50 (full-length human RORγt),"RORγt (FL) Reporter Assay B or C, % inhibition (value marked ***) (full-length human RORγt; Conditions B or C, marked ***: footnote not given)",inhibition at 6 µM (full-length human RORγt),"inhibition at 1 µM (full-length human RORγt; at 1 μM compound concentration, read-out: RORγt (FL) Reporter Assay B or C, % inhibition)"
C[C@H](Nc1cc(C(F)F)c(-c2sc(C(=O)N[C@H]3C[C@H](O)C3)nc2C(=O)N2CCC[C@@H]2C)cn1)C(F)(F)F [Example 188],85* %,540 nM,47 nM,–,–,–,–,–
"CC(C)(C)Nc1cc(C(F)F)c(-c2sc(C(=O)NC3CCS(=O)(=O)CC3)nc2C(=O)N2C3CCC2CC3)cn1 [Example 433, 4-((1s,4s)-7-Azabicyclo[2.2.1]heptane-7-carbonyl)-5-[6-(tert-butylamino)-4-(difluoromethyl)-3-pyridyl]-N-(1,1-dioxothian-4-yl)thiazole-2-carboxamide]",–,–,1.2 nM,128%,25 nM,–,–,–
"C[C@H](Nc1cc(C(F)(F)F)c(-c2sc(C(=O)NCC(C)(C)O)nc2C(=O)N2C3CCC2CC3)cn1)C1CCC1 (stereo in doubt) [Example 171, 4-((1s,4s)-7-Azabicyclo[2.2[1]heptane-7-carbonyl)-5-(6-(((S*)-1-cyclobutylethyl)amino)-4-(trifluoromethyl)pyridine-3-yl)-N-(2-hydroxy-2-methylpropyl)thiazole-2-carboxamide]",108* %,16 nM,4 nM,–,–,–,–,–
"C[C@H](Nc1cc(C(F)(F)F)c(-c2sc(C(=O)NCC(C)(C)O)nc2C(=O)N2CCC[C@@H]2C)cn1)C1CCC1 (relative stereo) [Example 175, 5-(6-(((S*)-1-Cyclobutylethyl)amino)-4-(trifluoromethyl)pyridine-3-yl)-N-(2-hydroxy-2-methylpropyl)-4-(((S)-2-methylpyrrolidine-1-carbonyl)thiazole-2-carboxamide]",–,44 nM,5.8 nM,–,–,119*** %,–,–
"CC[C@H](Nc1cc(C(F)F)c(-c2sc(C(=O)N3CC4CC(C3)O4)nc2C(=O)N2CCC[C@@H]2C)cn1)C(F)(F)F [Example 392, [5-[4-(Difluoromethyl)-6-[[(1S)-1-(trifluoromethyl)propyl]amino]-3-pyridyl]-2-(6-oxa-3-azabicyclo[3.1.1]heptane-3-carbonyl)thiazol-4-yl]-[(2S)-2-methylpyrrolidin-1-yl]methanone]",–,–,44 nM,102%,130 nM,–,–,–
"C[C@H]1CCCN1C(=O)c1nc(C(=O)NCC2(O)CC2)sc1-c1cnc(NC2CCCC2)cc1C(F)F [Example 2, (S)-5-(6-(Cyclopentylamino)-4-(difluoromethyl)pyridin-3-yl)-N-((1-hydroxycyclopropyl)methyl)-4-(2-methylpyrrolidine-1-carbonyl)thiazole-2-carboxamide]",95* %,77 nM,40 nM,–,–,–,–,–
"C[C@H](Nc1cc(C(F)F)c(-c2sc(C(=O)N[C@@H]3CC[C@@H](O)C3)nc2C(=O)N2C3CCC2CC3)cn1)C(F)(F)F [Example 438, 4-((1s,4s)-7-Azabicyclo[2.2.1]heptane-7-carbonyl)-5-[4-(difluoromethyl)-6-[[(1S)-2,2,2-trifluoro-1-methyl-ethyl]amino]-3-pyridyl]-N-[(1R,3R)-3-hydroxycyclopentyl]thiazole-2-carboxamide]",–,–,4 nM,–,83 nM,–,–,99%
"C[C@H](CO)NC(=O)c1nc(C(=O)N2CCC[C@@H]2C)c(-c2cnc(NC(C)(C)C)cc2C(F)F)s1 [Example 148, 5-(6-(tert-Butylamino)-4-(difluoromethyl)-3-pyridyl)-N-((1R)-2-hydroxy-1-methyl-ethyl)-4-((2S)-2-methylpyrrolidine-1-carbonyl)thiazole-2-carboxamide]",95* %,25 nM,6.4 nM,–,–,–,–,–

# The remaining compounds from weak to strong by Kd [1], led by results:
"RORγt (FL) Reporter Assay B or C, % inhibition (value marked *) (full-length human RORγt; Conditions B or C)",IC50 (full-length human RORγt; Conditions B or C),Kd [1],inhibition at 3 µM (full-length human RORγt; [2]),IC50 (full-length human RORγt),"RORγt (FL) Reporter Assay B or C, % inhibition (value marked ***) (full-length human RORγt; Conditions B or C, marked ***: footnote not given)",inhibition at 6 µM (full-length human RORγt),Structure (SMILES),"inhibition at 1 µM (full-length human RORγt; at 1 μM compound concentration, read-out: RORγt (FL) Reporter Assay B or C, % inhibition)"
–,–,5.1 nM,98%,310 nM,–,–,"C[C@H]1CCCN1C(=O)c1nc(C(=O)N[C@H](C)C(C)(C)O)sc1-c1cnc(NCC(C)(C)C)cc1C(F)F [Example 343, 5-[4-(Difluoromethyl)-6-(2,2-dimethylpropylamino)-3-pyridyl]-N-[(1R)-2-hydroxy-1,2-dimethyl-propyl]-4-[(2S)-2-methylpyrrolidine-1-carbonyl]thiazole-2-carboxamide]",–
–,–,2.9 nM,105%,13 nM,–,–,"C[C@H]1CCCN1C(=O)c1nc(C(=O)N[C@H]2C[C@@](C)(O)C2)sc1-c1cnc(NC(C)(C)C)cc1C(F)(F)F [Example 337, 5-[6-(tert-Butylamino)-4-(trifluoromethyl)-3-pyridyl]-N-(3-hydroxy-3-methyl-cyclobutyl)-4-[(2S)-2-methylpyrrolidine-1-carbonyl]thiazole-2-carboxamide]",–
–,–,2.5 nM,119%,15 nM,–,–,"C[C@H]1CCCN1C(=O)c1nc(C(=O)NCC(C)(O)C(F)(F)F)sc1-c1cnc(NC(C)(C)C)cc1C(F)(F)F (single isomer, unassigned) [Example 358, 5-(6-(tert-Butylamino)-4-(trifluoromethyl)pyridin-3-yl)-4-((S)-2-methylpyrrolidine-1-carbonyl)-N—((S*)-3,3,3-trifluoro-2-hydroxy-2-methylpropyl)thiazole-2-carboxamide]",–
–,16 nM,1.7 nM,–,–,–,116%,"C[C@H]1CCCN1C(=O)c1nc(C(=O)NCC(C)(C)O)sc1-c1cnc(N[C@H]2CCCCC2(F)F)cc1C(F)(F)F (relative stereo) [Example 36, 5-(6-(((S*)-2,2-Difluorocyclohexyl)amino)-4-(trifluoromethyl)pyridin-3-yl)-N-(2-hydroxy-2-methylpropyl)-4-((S)-2-methylpyrrolidine-1-carbonyl)thiazole-2-carboxamide]",–
122* %,47 nM,1.6 nM,–,–,–,–,"C[C@H](O)[C@H](C)NC(=O)c1nc(C(=O)N2CCC[C@@H]2C)c(-c2cnc(NC(C)(C)C)cc2C(F)(F)F)s1 (relative stereo) [Example 236, 5-(6-(tert-Butylamino)-4-(trifluoromethyl)pyridin-3-yl)-N-((2S*,3S*)-3-hydroxybutan-2-yl)-4-((S)-2-methylpyrrolidine-1-carbonyl)thiazole-2-carboxamide]",–
–,–,0.8 nM,99%,28 nM,–,–,"C[C@H](Nc1cc(C(F)F)c(-c2sc(C(=O)NC3CCOCC3)nc2C(=O)N2CC(F)(F)C[C@@H]2C)cn1)C(F)(F)F [Example 448, 4-[(2S)-4,4-Difluoro-2-methyl-pyrrolidine-1-carbonyl]-5-[4-(difluoromethyl)-6-[[(1S)-2,2,2-trifluoro-1-methyl-ethyl]amino]-3-pyridyl]-N-tetrahydropyran-4-yl-thiazole-2-carboxamide]",–
92* %,49 nM,0.7 nM,–,–,–,–,"C[C@H]1CC(F)(F)CN1C(=O)c1nc(C(=O)N[C@H]2COC[C@H]2O)sc1-c1cnc(NC2(C)CCC2)cc1C(F)(F)F (relative stereo) [Example 184, 4-((S)-4,4-Difluoro-2-methylpyrrolidine-1-carbonyl)-N-((3S*,4S*)-4-hydroxytetrahydrofuran-3-yl)-5-(6-((1-methylcyclobutyl)amino)-4-(trifluoromethyl)pyridine-3-yl)thiazole-2-carboxamide]",–
–,5.2 nM,0.43 nM,–,–,–,109%,"CC(Nc1cc(C(F)(F)F)c(-c2sc(C(=O)NCC(C)(C)O)nc2C(=O)N2CCCC[C@@H]2C)cn1)C(F)(F)F (stereo partly drawn) [Example 33, N-(2-Hydroxy-2-methylpropyl)-4-((S)-2-methylpiperidine-1-carbonyl)-5-(4-(trifluoromethyl)-6-((1,1,1-trifluoropropan-2-yl)amino)pyridin-3-yl)thiazole-2-carboxamide]",–
–,–,0.37 nM,96%,79 nM,–,–,"CC[C@H](Nc1cc(C(F)F)c(-c2sc(C(=O)NC3CCS(=O)(=O)CC3)nc2C(=O)N2CC(F)(F)C[C@@H]2C)cn1)C(F)(F)F [Example 426, 4-[(2S)-4,4-Difluoro-2-methyl-pyrrolidine-1-carbonyl]-5-[4-(difluoromethyl)-6-[[(1S)-1-(trifluoromethyl)propyl]amino]-3-pyridyl]-N-(1,1-dioxothian-4-yl)thiazole-2-carboxamide]",–
76* %,34 nM,0.22 nM,–,–,–,–,"C[C@H]1CC(F)(F)CN1C(=O)c1nc(C(=O)N[C@@H]2COC[C@@H]2O)sc1-c1cnc(NC2(C)CCC2)cc1C(F)(F)F (relative stereo) [Example 183, 4-((S)-4,4-Difluoro-2-methylpyrrolidine-1-carbonyl)-N-((3R*,4R*)-4-hydroxytetrahydrofuran-3-yl)-5-(6-((1-methylcyclobutyl)amino)-4-(trifluoromethyl)pyridine-3-yl)thiazole-2-carboxamide]",–
110* %,13 nM,0.2 nM,–,–,–,–,"CC[C@H](Nc1cc(C(F)(F)F)c(-c2sc(C(=O)NCC(C)(C)O)nc2C(=O)N2CCCC[C@@H]2C)cn1)C(F)(F)F [Example 112, N-(2-Hydroxy-2-methylpropyl)-4-((S)-2-methylpiperidine-1-carbonyl)-5-(6-(((S)-1,1,1-trifluorobutan-2-yl)amino)-4-(trifluoromethyl)pyridin-3-yl)thiazole-2-carboxamide]",–
